Holding throughout (assay type): cell-based
One test concerns the target T1, Smo wild type (Homo sapiens, UniProt Q99835).
T1 construct: expressed in transfected cells; host or cells: C3H10T1/2 cells (ATCC CCL-226), transient transfection with pLPCX-SMO
Briefly: Reporter assay of C3H10T1/2-Gli-Luc cells transfected with wild-type Smo, without SAG. Particulars: C3H10T1/2 cells transfected with pLPCX-SMO, no SAG, 48 hr; read-out: Inhibition of C3H10T1/2-Gli-Luc-Smo-WT [IC50. As for the experimental part:
(§1) A transient transfection system with a Smo wild type or a Smo D473H mutant was also used for compound screening. For the SMO inhibition experiments, cells were transfected with an additional 500 ng/well of wild-type or D473H-mutant type SMO construct (pLPCX-SMO or pLPCX-SMO-D473H). After 24 h, transfected cells were collected by trypsin treatment and re-plated in 96-well plates in an RPMI medium containing 0.5% FBS with a density of 1.5×10^4 cells/well. Compounds were dissolved in DMSO with serial dilutions and were then added to the assay plate. The assay plates were incubated at 37° C. for 48 hr.
(§2) Firefly luciferase and Renilla luciferase activity was determined using the Dual-Glo Luciferase reporter assay system (Promega) with a Victor3 plate reader (PerkinElmer Life Sciences). Firefly luciferase readings were normalized to Renilla luciferase to correct for transfection efficiency. Luminance reading for the C3H10T1/2-Gli-Luc assay was normalized based on DMSO control with SAG stimulation (100% pathway activity) and without SAG stimulation (0% pathway activity). IC50 values, defined as the inflection point of the logistic curve, were determined by nonlinear regression using the Prism 5 software (GraphPad).
(§3) The reporter assay of C3H10T1/2-Gli-Luc cells transfected with a wild-type, D473H mutant Smo mutant was carried out with the same protocol but without SAG stimulation. Luminance reading for the SMO inhibition experiments assay was normalized based on DMSO control (100% of the pathway activity) and a known Smo antagonist (ALLO-2 at 10 μM, 0% of the pathway activity).
For orientation: A reporter such as luciferase makes a cellular process visible.

Test [1] concerns hedgehog pathway (pGL3-7xGli-Luciferase reporter in C3H10T1/2 cells). Briefly: Transient transfection of C3H10T1/2 and Gli-Luc reporter assay with SAG stimulation. Particulars: Mus musculus, C3H 10T1/2, SAG 20 nM, 48 hr, read-out: Inhibition of Gli-Luc expression [IC50. As for the experimental part: A cell-based screen for inhibitors of the hedgehog pathway was performed using a transient transfection system in C3H10T1/2 cells with pGL3-7xGli-Luciferase reporter plasmids C3H10T1/2 cells (ATCC, cat.#CCL-226) were seeded into 6-well plates at 8×10^4 cells/well in a BME medium containing 10% heat-inactivated FBS. Cells were transfected the next morning with 500 ng/well pGL3-7xGli-Luciferase reporter plasmids and 100 ng/well pRL-TK Renilla luciferase reporter plasmids (Promega)using GeneJuice transfection reagent (Novagene). After 24 h, transfected cells were collected by trypsin treatment and re-plated in 96-well plates in an RPMI medium containing 0.5% FBS with a density of 1.5×10^4 cells/well. Compounds were dissolved in DMSO with serial dilutions and were then added to the assay plate. SAG (Hh-Ag 1.3) (Santa Cruz) was added to the assay plated for a final concentration 20 nM. The assay plates were incubated at 37° C. for 48 hr.
as §2

Another test addresses T2, Smo D473H mutant (Homo sapiens, UniProt Q99835, D473H).
T2 construct: expressed in transfected cells; host or cells: C3H10T1/2 cells (ATCC CCL-226), transient transfection with pLPCX-SMO-D473H
Briefly: Reporter assay of C3H10T1/2-Gli-Luc cells transfected with Smo D473H mutant, without SAG. Particulars: C3H10T1/2 cells transfected with pLPCX-SMO-D473H, no SAG, 48 hr; read-out: Inhibition of C3H10T1/2-Gli-Luc-Smo-D473H [IC50. As for the experimental part:
as §1, §2, §3

Where only a bound is given, the exact number is not on record here.

T2 sequence (Q99835 28-787 D473H): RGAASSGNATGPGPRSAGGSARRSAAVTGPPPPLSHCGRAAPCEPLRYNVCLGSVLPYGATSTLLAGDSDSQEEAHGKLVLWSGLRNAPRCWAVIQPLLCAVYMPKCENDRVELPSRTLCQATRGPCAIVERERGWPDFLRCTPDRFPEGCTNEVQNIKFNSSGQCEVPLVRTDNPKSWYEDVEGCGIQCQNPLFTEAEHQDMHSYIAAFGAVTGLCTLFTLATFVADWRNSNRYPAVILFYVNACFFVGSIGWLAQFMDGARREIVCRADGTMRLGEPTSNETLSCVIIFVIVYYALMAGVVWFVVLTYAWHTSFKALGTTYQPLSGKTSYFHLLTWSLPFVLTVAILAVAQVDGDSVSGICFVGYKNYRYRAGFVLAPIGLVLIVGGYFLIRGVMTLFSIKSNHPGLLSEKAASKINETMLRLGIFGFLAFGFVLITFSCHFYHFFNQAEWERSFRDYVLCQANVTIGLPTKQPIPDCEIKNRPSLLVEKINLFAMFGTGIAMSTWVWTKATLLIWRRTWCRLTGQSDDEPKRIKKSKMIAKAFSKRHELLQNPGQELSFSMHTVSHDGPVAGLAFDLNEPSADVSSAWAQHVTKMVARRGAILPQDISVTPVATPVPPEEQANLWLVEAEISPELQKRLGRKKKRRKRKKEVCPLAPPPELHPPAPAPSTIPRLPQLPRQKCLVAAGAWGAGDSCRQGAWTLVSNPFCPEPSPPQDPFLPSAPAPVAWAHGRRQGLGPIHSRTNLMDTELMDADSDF
T1 sequence (Q99835 28-787): as the sequence (Q99835 28-787 D473H) above, with H446D counted along it

With `CSc1cnc(Nc2ccc(C(=O)Nc3c(C)cccc3C)cc2)nc1-c1ccc(OC(F)(F)F)cc1` [Compound 1, N-(2,6-Dimethyl-phenyl)-4-[5-methylsulfanyl-4-(4-trifluoromethoxy-phenyl) -pyrimidin-2-ylamino]-benzamide], the IC50 at Smo wild type was 100 to 1000 nM; in test [1], 100 to 1000 nM; at Smo D473H mutant, over 1000 nM.
For the molecule `CSc1cnc(Nc2ccc(C(=O)Nc3c(C)cccc3C)cc2)nc1-c1ccc(C#N)cc1` [Compound 2, 4-[4-(4-Cyano-phenyl)-5-methylsulfanyl-pyrimidin-2-ylamino]-N-(2,6-dimethyl-phenyl)-benzamide], the IC50 (at Smo wild type; in test [1]; at Smo D473H mutant) was 100 to 1000 nM throughout.
Regarding `CSc1cnc(Nc2ccc(C(=O)Nc3ccccc3)cc2)nc1-c1ccc(C#N)cc1` [Compound 3, 4-[4-(4-Cyano-phenyl)-5-methylsulfanyl-pyrimidin-2-ylamino]-N-phenyl-benzamide], the IC50 (on Smo wild type; in test [1]; at Smo D473H mutant) was 100 to 1000 nM each time.
Take `CSc1cnc(Nc2ccc(C(=O)Nc3ccc(C(F)(F)F)c(Cl)c3)cc2)nc1-c1ccc(C#N)cc1` [Compound 4, N-(3-Chloro-4-trifluoromethyl-phenyl)-4-[4-(4-cyano-phenyl)-5-methylsulfanyl-pyrimidin-2-ylamino]-benzamide]: the IC50 (at Smo wild type; in test [1]; at Smo D473H mutant) was 100 to 1000 nM in each case.
On to `CSc1cnc(Nc2ccc(C(=O)Nc3ccccc3)cc2)nc1-c1cccnc1F` [Compound 5, 4-[4-(2-Fluoro-pyridin-3-yl)-5-methylsulfanyl-pyrimidin-2-ylamino]-N-phenyl-benzamide], for which the IC50 (on Smo wild type; in test [1]; on Smo D473H mutant) was 100 to 1000 nM throughout.
On to `CSc1cnc(Nc2ccc(C(=O)Nc3c(C)cccc3C)cc2)nc1-c1cccnc1F` [Compound 6, N-(2,6-Dimethyl-phenyl)-4-[4-(2-fluoro-pyridin-3-yl)-5-methylsulfanyl-pyrimidin-2-ylamino]-benzamide], for which the IC50 (on Smo wild type; in test [1]; at Smo D473H mutant) was under 100 nM each time.
As for `CCOc1ccc(-c2nc(Nc3ccc(C(=O)Nc4ccc(Cl)c(C(F)(F)F)c4)cc3)ncc2SC)cn1` [Compound 7, N-(4-Chloro-3-trifluoromethyl-phenyl)-4-[4-(6-ethoxy-pyridin-3-yl)-5-methylsulfanyl-pyrimidin-2-ylamino]-benzamide], the IC50 (on Smo wild type; in test [1]; on Smo D473H mutant) was 100 to 1000 nM in each case.
As to `CSc1cnc(Nc2ccc(C(=O)Nc3c(F)cccc3F)cc2)nc1-c1cccnc1F` [Compound 8, N-(2,6-Difluoro-phenyl)-4-[4-(2-fluoro-pyridin-3-yl)-5-methylsulfanyl-pyrimidin-2-ylamino]-benzamide], the IC50 (on Smo wild type; in test [1]; at Smo D473H mutant) was 100 to 1000 nM throughout.
As to `COc1cccc(OC)c1NC(=O)c1ccc(Nc2ncc(SC)c(-c3cccnc3F)n2)cc1` [Compound 9, N-(2,6-Dimethoxy-phenyl)-4-[4-(2-fluoro-pyridin-3-yl)-5-methylsulfanyl-pyrimidin-2-ylamino]-benzamide], the IC50 at Smo wild type is under 100 nM; in test [1], under 100 nM; on Smo D473H mutant, 100 to 1000 nM.
In the case of `CSc1cnc(Nc2ccc(C(=O)Nc3c(F)cccc3F)cc2)nc1-c1cccnc1` [Compound 10, N-(2,6-Difluoro-phenyl)-4-(5-methylsulfanyl-4-pyridin-3-yl-pyrimidin-2-ylamino)-benzamide], the IC50 (at Smo wild type; in test [1]; on Smo D473H mutant) was 100 to 1000 nM throughout.
As for `CSc1cnc(Nc2ccc(C(=O)Nc3ccccc3C)cc2)nc1-c1cccnc1F` [Compound 11, 4-[4-(2-Fluoro-pyridin-3-yl)-5-methylsulfanyl-pyrimidin-2-ylamino]-N-o-tolyl-benzamide], the IC50 (on Smo wild type; in test [1]; at Smo D473H mutant) was 100 to 1000 nM throughout.
Turning to `CSc1cnc(Nc2ccc(C(=O)Nc3c(C)cccc3C)cc2F)nc1-c1cccnc1F` [Compound 12, N-(2,6-Dimethyl-phenyl)-3-fluoro-4-[4-(2-fluoro-pyridin-3-yl)-5-methylsulfanyl-pyrimidin-2-ylamino]-benzamide], the IC50 (at Smo wild type; in test [1]; at Smo D473H mutant) was 100 to 1000 nM each time.
With `COc1cccc(OC)c1NC(=O)c1ccc(Nc2ncc(SC)c(-c3cccnc3F)n2)c(F)c1` [Compound 13, N-(2,6-Dimethoxy-phenyl)-3-fluoro-4-[4-(2-fluoro-pyridin-3-yl)-5-methylsulfanyl-pyrimidin-2-ylamino]-benzamide], the IC50 (at Smo wild type; in test [1]; on Smo D473H mutant) was 100 to 1000 nM each time.
As for `COc1cccc(C)c1NC(=O)c1ccc(Nc2ncc(SC)c(-c3cccnc3F)n2)cc1` [Compound 14, 4-[4-(2-Fluoro-pyridin-3-yl)-5-methylsulfanyl-pyrimidin-2-ylamino]-N-(2-methoxy-6-methyl-phenyl)-benzamide], the results for the IC50 (at Smo wild type; in test [1]; at Smo D473H mutant) were 100 to 1000 nM, under 100 nM and 100 to 1000 nM, respectively.
For the molecule `COc1cccc(C)c1NC(=O)c1ccc(Nc2ncc(SC)c(-c3cccnc3F)n2)c(F)c1` [Compound 15, 3-Fluoro-4-[4-(2-fluoro-pyridin-3-yl)-5-methylsulfanyl-pyrimidin-2-ylamino]-N-(2-methoxy-6-methyl-phenyl)-benzamide], the IC50 is under 100 nM at Smo wild type, under 100 nM in test [1] and 100 to 1000 nM at Smo D473H mutant.
`CSc1cnc(Nc2ccc(C(=O)Nc3ccccc3C)cc2F)nc1-c1cccnc1F` [Compound 16, 3-Fluoro-4-[4-(2-fluoro-pyridin-3-yl)-5-methylsulfanyl-pyrimidin-2-ylamino]-N-o-tolyl-benzamide]: the IC50 (at Smo wild type; in test [1]; at Smo D473H mutant) was 100 to 1000 nM throughout.
In the case of `COc1cccc(C)c1NC(=O)c1ccc(Nc2ncc(SC)c(-c3ccc(F)nc3)n2)c(F)c1` [Compound 17, 3-Fluoro-4-[4-(6-fluoro-pyridin-3-yl)-5-methylsulfanyl-pyrimidin-2-ylamino]-N-(2-methoxy-6-methyl-phenyl)-benzamide], the IC50 (at Smo wild type; in test [1]; at Smo D473H mutant) was 100 to 1000 nM throughout.
Turning to `CSc1cnc(Nc2ccc(C(=O)Nc3ccc(C#N)cc3)cc2)nc1-c1cccnc1F` [Compound 18, N-(4-Cyano-phenyl)-4-[4-(2-fluoro-pyridin-3-yl)-5-methylsulfanyl-pyrimidin-2-ylamino]-benzamide], the IC50 (at Smo wild type; in test [1]; at Smo D473H mutant) was 100 to 1000 nM in each case.
Take `CSc1cnc(Nc2ccc(C(=O)Nc3ccccc3C)cc2)nc1-c1ccccc1` [Compound 19, 4-(5-Methylsulfanyl-4-phenyl-pyrimidin-2-ylamino)-N-o-tolyl-benzamide]: the IC50 (on Smo wild type; in test [1]; on Smo D473H mutant) was 100 to 1000 nM throughout.
Take `CSc1cnc(Nc2ccc(C(=O)Nc3cc(CN4CCOCC4)ccc3C)cc2)nc1-c1ccccc1` [Compound 20, N-(2-Methyl-5-morpholin-4-ylmethyl-phenyl)-4-(5-methylsulfanyl-4-phenyl-pyrimidin-2-ylamino)-benzamide]: the results for the IC50 (at Smo wild type; in test [1]; on Smo D473H mutant) were under 100 nM, under 100 nM and 100 to 1000 nM, respectively.
With `COc1cccc(OC)c1NC(=O)c1ccc(Nc2ncc(SC)c(-c3ccccc3)n2)cc1` [Compound 21, N-(2,6-Dimethoxy-phenyl)-4-(5-methylsulfanyl-4-phenyl-pyrimidin-2-ylamino)-benzamide], the IC50 at Smo wild type was under 100 nM; in test [1], under 100 nM; on Smo D473H mutant it was 100 to 1000 nM.

For the origin of these results see patent US10793542B2, “Hetroarylamine compounds for modulating the hedgehog pathway and preparing method and uses thereof” (DEVELOPMENT CENTER FOR BIOTECHNOLOGY, priority 2016, dated 2020).
